This is an account of results in patent publication US7981928B2, “Chemotherapy method using x-rays” (Nanodynamics, Inc., priority 2002, dated 2011).

One data set relates to cells. Particulars: cited from earlier work.
In another data set the test system is mice. The conditions noted are these: cited from earlier work.
A further data set deals with neuroblastoma lines. As to the kind of experiment: nuclear chemotherapy with 77BrdC on neuroblastoma lines. In kind it is cell-based. The conditions noted are these: ten neuroblastoma lines tested; H4U blockage. How it is done: An investigation of a method called “nuclear chemotherapy” was done many years previously at Sloan-Kettering Research Institute in New York, by Dr. Chia-Gee Wang and Dr. Lawrence Helson. The research was done using ^77BrdC, where ^77Br (half-life at 57 hours) would undergo a K-capture and deliver 10^6 or more Gy at a small distance. The […] of BrdC to BrdU can be blocked by the non-toxic H4U and therefore excluding BrdC from being incorporated into the DNA pool. Certain transformed cells, on the other hand, would make use of a more primitive kinase to bypass the H4U blockage, and incorporate BrdC to form BrdU. The ^77Br was made by adding an α particle to ^75As in a facility in the U.K. ^77Br was obtained in liquid solution, and ^77BrdC was made. […] The cells simply stopped mitosis while continuing most of the cellular functions. The Auger electrons from the ^77BrdU delivered such a high dose of the DNA duplex that no cellular repair was possible.

On to 7-DTPA-Paclitaxel, for which the “retention of paclitaxel potency in the cells” value with cells is listed as “retain much of the paclitaxel potency”.

For the compound `O=C([O-])CN(CCN(CC(=O)[O-])CC(=O)O)CCN(CC(=O)[O-])CC(=O)O.[Gd+3]` [Gd-DTPA], the LD50 in mice in the data set with mice was about 10 mmol/kg.

Regarding `Nc1nc(=O)n([C@H]2C[C@H](O)[C@@H](CO)O2)cc1[77Br]` [^77BrdC], in the data set on neuroblastoma lines, the “sensitivity of neuroblastoma lines” value was “two of the ten lines were sensitive”.
